Columns and labels:
[1] = Antiproliferative activity against human BT474 cells overexpressing HER2 at 10 uM by MTT assay; type: functional; details: BT-474
[2] = target: T1, Epidermal growth factor receptor (Homo sapiens, UniProt P00533); experiment: Inhibition of human full length HER1 assessed as phosphorylation state at 10 uM by ELISA assay
[3] = Antiproliferative activity against human SKBR3 cells overexpressing HER2 by MTT assay; type: functional, cell-based; details: SK-BR-3
[4] = Antiproliferative activity against human BT474 cells overexpressing HER2 by MTT assay; type: functional, cell-based; details: BT-474
[5] = target: T2, Receptor tyrosine-protein kinase erbB-2 (Homo sapiens, UniProt P04626); experiment: Inhibition of human full length HER2 assessed as phosphorylation state at 10 uM by ELISA assay
[6] = Antiproliferative activity against human SKBR3 cells overexpressing HER2 at 10 uM by MTT assay; type: functional; details: SK-BR-3
[7] = target: T1, Epidermal growth factor receptor; experiment: Inhibition of human full length HER1 assessed as phosphorylation state by ELISA assay
[8] = target: T2, Receptor tyrosine-protein kinase erbB-2; experiment: Inhibition of human full length HER2 assessed as phosphorylation state by ELISA assay

T1 sequence (P00533 whole entry): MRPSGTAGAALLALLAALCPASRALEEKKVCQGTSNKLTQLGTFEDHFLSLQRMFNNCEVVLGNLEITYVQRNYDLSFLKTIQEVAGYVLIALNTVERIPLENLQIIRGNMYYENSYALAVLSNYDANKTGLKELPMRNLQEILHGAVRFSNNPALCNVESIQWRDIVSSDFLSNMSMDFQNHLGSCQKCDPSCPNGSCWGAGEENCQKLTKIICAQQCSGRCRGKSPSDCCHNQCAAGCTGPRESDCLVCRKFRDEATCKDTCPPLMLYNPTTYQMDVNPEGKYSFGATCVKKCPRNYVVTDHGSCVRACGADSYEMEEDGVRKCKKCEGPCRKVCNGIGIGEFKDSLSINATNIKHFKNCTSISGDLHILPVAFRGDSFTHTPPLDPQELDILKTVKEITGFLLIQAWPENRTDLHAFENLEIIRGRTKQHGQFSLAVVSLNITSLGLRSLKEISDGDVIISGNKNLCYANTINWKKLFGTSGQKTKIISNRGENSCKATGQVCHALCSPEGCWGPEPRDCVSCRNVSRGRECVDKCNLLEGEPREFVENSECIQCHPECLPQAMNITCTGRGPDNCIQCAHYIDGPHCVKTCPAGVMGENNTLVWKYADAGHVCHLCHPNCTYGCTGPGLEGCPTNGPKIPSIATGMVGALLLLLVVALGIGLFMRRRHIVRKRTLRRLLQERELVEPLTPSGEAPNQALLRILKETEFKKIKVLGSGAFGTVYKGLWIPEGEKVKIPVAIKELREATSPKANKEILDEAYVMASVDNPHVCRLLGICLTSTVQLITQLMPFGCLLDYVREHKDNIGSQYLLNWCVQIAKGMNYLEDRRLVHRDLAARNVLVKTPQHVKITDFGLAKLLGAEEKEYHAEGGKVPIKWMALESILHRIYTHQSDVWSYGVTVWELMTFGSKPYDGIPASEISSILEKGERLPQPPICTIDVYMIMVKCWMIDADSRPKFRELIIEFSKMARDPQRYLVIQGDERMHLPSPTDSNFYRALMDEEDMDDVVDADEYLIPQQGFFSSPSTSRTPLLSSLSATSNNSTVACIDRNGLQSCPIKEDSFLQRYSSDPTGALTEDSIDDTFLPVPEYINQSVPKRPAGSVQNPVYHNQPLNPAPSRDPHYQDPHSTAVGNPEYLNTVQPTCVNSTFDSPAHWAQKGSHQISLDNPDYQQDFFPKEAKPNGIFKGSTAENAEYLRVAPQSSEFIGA
T2 sequence (P04626 whole entry): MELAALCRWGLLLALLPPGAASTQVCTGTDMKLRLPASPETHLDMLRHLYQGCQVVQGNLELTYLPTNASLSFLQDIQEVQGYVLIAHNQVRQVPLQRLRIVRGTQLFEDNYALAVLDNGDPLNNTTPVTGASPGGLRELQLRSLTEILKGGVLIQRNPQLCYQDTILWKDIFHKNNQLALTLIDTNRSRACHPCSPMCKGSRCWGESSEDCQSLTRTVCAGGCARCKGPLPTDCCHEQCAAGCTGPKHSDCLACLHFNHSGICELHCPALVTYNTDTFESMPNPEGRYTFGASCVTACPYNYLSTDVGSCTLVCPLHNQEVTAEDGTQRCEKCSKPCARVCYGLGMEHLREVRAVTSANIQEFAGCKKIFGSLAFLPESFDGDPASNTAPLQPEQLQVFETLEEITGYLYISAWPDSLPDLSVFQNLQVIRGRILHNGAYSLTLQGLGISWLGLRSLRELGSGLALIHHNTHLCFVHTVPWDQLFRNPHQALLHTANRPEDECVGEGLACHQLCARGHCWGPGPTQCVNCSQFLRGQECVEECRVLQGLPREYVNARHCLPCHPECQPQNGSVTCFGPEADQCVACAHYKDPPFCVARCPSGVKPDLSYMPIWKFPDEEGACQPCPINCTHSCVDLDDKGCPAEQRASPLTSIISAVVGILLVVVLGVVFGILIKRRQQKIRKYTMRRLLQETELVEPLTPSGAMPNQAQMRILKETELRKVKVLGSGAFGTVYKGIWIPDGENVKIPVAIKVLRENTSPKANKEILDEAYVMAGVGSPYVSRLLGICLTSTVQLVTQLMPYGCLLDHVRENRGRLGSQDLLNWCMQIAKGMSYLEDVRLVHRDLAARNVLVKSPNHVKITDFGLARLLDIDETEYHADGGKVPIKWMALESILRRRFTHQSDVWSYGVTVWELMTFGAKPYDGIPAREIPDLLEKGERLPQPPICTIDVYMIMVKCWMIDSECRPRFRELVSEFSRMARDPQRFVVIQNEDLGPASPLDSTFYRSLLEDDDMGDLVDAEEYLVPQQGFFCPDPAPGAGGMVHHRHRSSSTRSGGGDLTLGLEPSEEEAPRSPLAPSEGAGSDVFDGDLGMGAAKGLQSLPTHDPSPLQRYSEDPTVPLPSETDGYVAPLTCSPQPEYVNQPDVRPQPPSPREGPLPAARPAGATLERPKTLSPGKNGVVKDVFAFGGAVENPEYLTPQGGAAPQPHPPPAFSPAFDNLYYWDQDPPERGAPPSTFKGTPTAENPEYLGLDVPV

c1ccc(-n2nnnc2Oc2cccc(CNCc3ccc4c(c3)OCO4)c2)cc1
inhibition at 10 µM [1]: 27.2%

Brc1cccc(CNc2ccc(-c3nc4ccccc4o3)cc2)c1
inhibition at 10 µM [1]: 51.8%
inhibition [2]: 79.9%
IC50 [3]: 1240 nM
IC50 [4]: 343 nM
inhibition [5]: 73.1%

CN1C(=O)C(O)(CC(=O)c2cccc(-n3cccc3)c2)c2ccccc21 (configuration not stated)
inhibition at 10 µM [1]: 7.25%

c1cncc(Nc2nnc(Cc3c[nH]c4ccccc34)o2)c1
inhibition at 10 µM [6]: 33.4%

Cc1ccc(C(=O)COc2cccc(-c3cnc4ccccc4n3)c2)cc1
inhibition at 10 µM [1]: 56.2%
inhibition [2]: 83.9%
IC50 [3]: 3110 nM
IC50 [4]: 314 nM
inhibition [5]: 67%

Brc1cccnc1Nc1nnc(Cc2c[nH]c3ccccc23)o1
inhibition at 10 µM [6]: 37.2%

Cc1ccn2c(C(=O)N/N=C/c3cn(-c4ccccc4)nc3-c3cccs3)c(C)nc2c1
inhibition at 10 µM [1]: 48.2%

COc1ccccc1OCC(=O)Nc1cccc(-c2nc3ccccc3c(=O)o2)c1
inhibition at 10 µM [1]: 35%

Cc1ccc2c(C)nc(Nc3nc(O)cc(CSc4nnnn4-c4ccccc4)n3)nc2c1
IC50 [7]: 3.92 µM
inhibition at 10 µM [1]: 72.7%
IC50 [8]: 6.03 µM
inhibition [2]: 83%
IC50 [3]: 1030 nM
IC50 [4]: 755 nM
inhibition [5]: 85.8%

O=C(Cc1c[nH]c2ccccc12)NNC(=S)Nc1cccnc1
inhibition at 10 µM [6]: 21.2%

O=C(COC(=O)c1cc(O)nc2ccccc12)c1ccc2ccccc2c1
inhibition at 10 µM [1]: 17%

O=[N+]([O-])c1cc(-c2ccc(/C=N/c3nc4ccccn4c3-c3ccco3)o2)ccc1Cl
inhibition at 10 µM [1]: 77%
inhibition [2]: 80.5%
IC50 [3]: 3170 nM
IC50 [4]: 1100 nM
inhibition [5]: 67.1%

Cc1nnc2sc(-c3ccc(NCc4ccc(F)cc4)cc3)nn12
inhibition at 10 µM [1]: 51%

O=C(CSc1nc(-c2cccs2)cc(C(F)(F)F)n1)Nc1ccc2c(c1)OCO2
inhibition at 10 µM [1]: 47.9%

O=C(CSc1nnc2ccc(-c3ccccc3)nn12)NC(=O)Nc1ccccc1
inhibition at 10 µM [1]: 52.7%
inhibition [2]: 76.1%
IC50 [3]: 1640 nM
IC50 [4]: 802 nM
inhibition [5]: 75.1%

Nc1ncn(Cc2ccccc2)c2nc(SCCOc3ccccc3F)nc1-2
inhibition at 10 µM [1]: 61.4%
inhibition [2]: 81.8%
IC50 [3]: 2260 nM
IC50 [4]: 426 nM
inhibition [5]: 72.1%

COc1nc(N/N=C/c2ccc(-c3ccc(Cl)c([N+](=O)[O-])c3)o2)nc(N2CCOCC2)n1
inhibition at 10 µM [1]: 39.8%

N#Cc1cnn(-c2ccccc2)c1NC(=O)CSc1nnc(-c2ccco2)n1-c1ccc(F)cc1
inhibition at 10 µM [1]: 9.56%

O=C(Cc1c[nH]c2ccccc12)NNC(=S)Nc1ncccc1Br
IC50 [7]: 8.49 µM
inhibition at 10 µM [6]: 71.5%
IC50 [8]: 12.4 µM

— ChEMBL document CHEMBL3393043, “Computer-aided identification of novel anticancer compounds with a possible dual HER1/HER2 inhibition mechanism” (Bioorg Med Chem Lett, 2015)
